Test: xn = mol fraction of the nth substance listed
Settings: 101 kPa, Liquid, Vibrating tube method

CC1COC(=O)O1 (centres undefined) [4-methyl-1,3-dioxolan-2-one] + c1ccccc1
Settings | mass density [kg/m3]
293.15 K, x2 = 0 | 1200.3
293.15 K, x2 = 0.049 | 1184.5
293.15 K, x2 = 0.1189 | 1162
293.15 K, x2 = 0.1749 | 1144.1
293.15 K, x2 = 0.2349 | 1125
293.15 K, x2 = 0.2949 | 1105.9
293.15 K, x2 = 0.3649 | 1083.6
293.15 K, x2 = 0.4248 | 1064.6
293.15 K, x2 = 0.4959 | 1041.9
293.15 K, x2 = 0.5529 | 1023.8
293.15 K, x2 = 0.6249 | 1000.7
293.15 K, x2 = 0.6934 | 978.6
293.15 K, x2 = 0.7539 | 959
293.15 K, x2 = 0.8135 | 939.6
293.15 K, x2 = 0.8622 | 923.6
293.15 K, x2 = 0.9248 | 902.9
303.15 K, x2 = 0 | 1180.6
303.15 K, x2 = 0.0487 | 1165.3
303.15 K, x2 = 0.1273 | 1140.9
303.15 K, x2 = 0.1841 | 1123.3
303.15 K, x2 = 0.2487 | 1103.3
303.15 K, x2 = 0.3127 | 1083.6
303.15 K, x2 = 0.3749 | 1064.4
303.15 K, x2 = 0.4364 | 1045.4
303.15 K, x2 = 0.4821 | 1031.4
303.15 K, x2 = 0.5428 | 1012.6
303.15 K, x2 = 0.6038 | 993.7
303.15 K, x2 = 0.6782 | 970.5
303.15 K, x2 = 0.7465 | 949.1
303.15 K, x2 = 0.8246 | 924.4
303.15 K, x2 = 0.8846 | 905.3
303.15 K, x2 = 0.9381 | 888.1
313.15 K, x2 = 0 | 1161.3
313.15 K, x2 = 0.0537 | 1145
313.15 K, x2 = 0.1295 | 1122
313.15 K, x2 = 0.1649 | 1111.4
313.15 K, x2 = 0.2359 | 1090
313.15 K, x2 = 0.3139 | 1066.7
313.15 K, x2 = 0.3619 | 1052.3
313.15 K, x2 = 0.4143 | 1036.6
313.15 K, x2 = 0.4829 | 1016.1
313.15 K, x2 = 0.5498 | 996.1
313.15 K, x2 = 0.625 | 973.4
313.15 K, x2 = 0.6821 | 956.2
313.15 K, x2 = 0.7492 | 935.8
313.15 K, x2 = 0.8247 | 912.6
313.15 K, x2 = 0.8732 | 897.6
313.15 K, x2 = 0.9348 | 878.4
323.15 K, x2 = 0 | 1142.4
323.15 K, x2 = 0.0598 | 1124.7
323.15 K, x2 = 0.131 | 1103.7
323.15 K, x2 = 0.1856 | 1087.7
323.15 K, x2 = 0.2438 | 1070.7
323.15 K, x2 = 0.3257 | 1046.8
323.15 K, x2 = 0.3987 | 1025.6
323.15 K, x2 = 0.4589 | 1008.1
323.15 K, x2 = 0.5156 | 991.6
323.15 K, x2 = 0.5687 | 976.1
323.15 K, x2 = 0.6145 | 962.7
323.15 K, x2 = 0.6647 | 948
323.15 K, x2 = 0.7365 | 926.8
323.15 K, x2 = 0.7965 | 909
323.15 K, x2 = 0.8567 | 891
323.15 K, x2 = 0.9267 | 869.8
333.15 K, x2 = 0 | 1124
333.15 K, x2 = 0.0592 | 1106.9
333.15 K, x2 = 0.1281 | 1087
333.15 K, x2 = 0.1834 | 1071.2
333.15 K, x2 = 0.2487 | 1052.6
333.15 K, x2 = 0.3279 | 1030.1
333.15 K, x2 = 0.3987 | 1010
333.15 K, x2 = 0.4598 | 992.7
333.15 K, x2 = 0.5139 | 977.4
333.15 K, x2 = 0.5533 | 966.2
333.15 K, x2 = 0.6138 | 949
333.15 K, x2 = 0.6623 | 935.1
333.15 K, x2 = 0.7246 | 917.3
333.15 K, x2 = 0.7749 | 902.7
333.15 K, x2 = 0.8568 | 878.9
333.15 K, x2 = 0.9248 | 858.9
343.15 K, x2 = 0 | 1106
343.15 K, x2 = 0.0638 | 1087.9
343.15 K, x2 = 0.1139 | 1073.8
343.15 K, x2 = 0.1756 | 1056.4
343.15 K, x2 = 0.2439 | 1037.4
343.15 K, x2 = 0.3178 | 1016.9
343.15 K, x2 = 0.3875 | 997.6
343.15 K, x2 = 0.4583 | 978
343.15 K, x2 = 0.5076 | 964.3
343.15 K, x2 = 0.5586 | 950.2
343.15 K, x2 = 0.6246 | 931.9
343.15 K, x2 = 0.6981 | 911.4
343.15 K, x2 = 0.7528 | 896.1
343.15 K, x2 = 0.8137 | 878.9
343.15 K, x2 = 0.8748 | 861.5
343.15 K, x2 = 0.9361 | 843.9
353.15 K, x2 = 0 | 1088.4
353.15 K, x2 = 0.053 | 1073.6
353.15 K, x2 = 0.1329 | 1051.5
353.15 K, x2 = 0.1822 | 1037.9
353.15 K, x2 = 0.2378 | 1022.7
353.15 K, x2 = 0.3327 | 996.9
353.15 K, x2 = 0.381 | 983.8
353.15 K, x2 = 0.4485 | 965.5
353.15 K, x2 = 0.5236 | 945.2
353.15 K, x2 = 0.5728 | 931.9
353.15 K, x2 = 0.6387 | 914
353.15 K, x2 = 0.6831 | 901.9
353.15 K, x2 = 0.7428 | 885.6
353.15 K, x2 = 0.7933 | 871.7
353.15 K, x2 = 0.8642 | 852.1
353.15 K, x2 = 0.9461 | 829.2

C=Cc1ccccc1 [styrene] + CC1COC(=O)O1
Settings | mass density [kg/m3]
293.15 K, x1 = 0.0537 | 1180.1
293.15 K, x1 = 0.1389 | 1149.3
293.15 K, x1 = 0.1832 | 1134
293.15 K, x1 = 0.2341 | 1116.8
293.15 K, x1 = 0.294 | 1097.3
293.15 K, x1 = 0.3867 | 1068.4
293.15 K, x1 = 0.4379 | 1053.1
293.15 K, x1 = 0.5089 | 1032.5
293.15 K, x1 = 0.5799 | 1012.6
293.15 K, x1 = 0.6328 | 998.3
293.15 K, x1 = 0.6978 | 981.1
293.15 K, x1 = 0.7534 | 966.7
293.15 K, x1 = 0.8136 | 951.5
293.15 K, x1 = 0.8738 | 936.6
293.15 K, x1 = 0.9348 | 921.7
293.15 K, x1 = 1 | 906
303.15 K, x1 = 0.0613 | 1158.4
303.15 K, x1 = 0.1289 | 1134.8
303.15 K, x1 = 0.1743 | 1119.6
303.15 K, x1 = 0.2389 | 1098.5
303.15 K, x1 = 0.2976 | 1080.1
303.15 K, x1 = 0.3681 | 1058.8
303.15 K, x1 = 0.4178 | 1044.3
303.15 K, x1 = 0.4622 | 1031.7
303.15 K, x1 = 0.5239 | 1014.6
303.15 K, x1 = 0.5919 | 996.3
303.15 K, x1 = 0.6521 | 980.7
303.15 K, x1 = 0.7244 | 962.4
303.15 K, x1 = 0.7932 | 945.4
303.15 K, x1 = 0.8472 | 932.4
303.15 K, x1 = 0.9247 | 914
303.15 K, x1 = 1 | 896.4
313.15 K, x1 = 0.0473 | 1144.7
313.15 K, x1 = 0.1255 | 1118.3
313.15 K, x1 = 0.1922 | 1096.7
313.15 K, x1 = 0.2467 | 1079.7
313.15 K, x1 = 0.2844 | 1068.3
313.15 K, x1 = 0.3388 | 1052.2
313.15 K, x1 = 0.4032 | 1033.8
313.15 K, x1 = 0.4789 | 1013
313.15 K, x1 = 0.5376 | 997.4
313.15 K, x1 = 0.6198 | 976.4
313.15 K, x1 = 0.6638 | 965.4
313.15 K, x1 = 0.7398 | 946.9
313.15 K, x1 = 0.8133 | 929.5
313.15 K, x1 = 0.8756 | 915.1
313.15 K, x1 = 0.9456 | 899.1
313.15 K, x1 = 1 | 886.9
323.15 K, x1 = 0.0598 | 1122.3
323.15 K, x1 = 0.1431 | 1095.3
323.15 K, x1 = 0.1846 | 1082.4
323.15 K, x1 = 0.2572 | 1060.6
323.15 K, x1 = 0.3312 | 1039.2
323.15 K, x1 = 0.3841 | 1024.5
323.15 K, x1 = 0.4423 | 1008.8
323.15 K, x1 = 0.4928 | 995.6
323.15 K, x1 = 0.5634 | 977.7
323.15 K, x1 = 0.6143 | 965.1
323.15 K, x1 = 0.6635 | 953.3
323.15 K, x1 = 0.7187 | 940.3
323.15 K, x1 = 0.7749 | 927.3
323.15 K, x1 = 0.8353 | 913.6
323.15 K, x1 = 0.9244 | 893.8
323.15 K, x1 = 1 | 877.3
333.15 K, x1 = 0.0534 | 1106.6
333.15 K, x1 = 0.113 | 1087.7
333.15 K, x1 = 0.1682 | 1070.9
333.15 K, x1 = 0.2134 | 1057.5
333.15 K, x1 = 0.2843 | 1037.2
333.15 K, x1 = 0.3587 | 1016.8
333.15 K, x1 = 0.4238 | 999.7
333.15 K, x1 = 0.479 | 985.6
333.15 K, x1 = 0.5359 | 971.5
333.15 K, x1 = 0.5831 | 960.1
333.15 K, x1 = 0.6811 | 937.2
333.15 K, x1 = 0.7529 | 920.9
333.15 K, x1 = 0.8243 | 905.2
333.15 K, x1 = 0.8871 | 891.7
333.15 K, x1 = 0.9424 | 879.9
333.15 K, x1 = 1 | 867.8
343.15 K, x1 = 0.0648 | 1085.6
343.15 K, x1 = 0.1198 | 1068.9
343.15 K, x1 = 0.1823 | 1050.6
343.15 K, x1 = 0.2398 | 1034.3
343.15 K, x1 = 0.318 | 1013
343.15 K, x1 = 0.3832 | 996
343.15 K, x1 = 0.4429 | 981
343.15 K, x1 = 0.5138 | 963.8
343.15 K, x1 = 0.5824 | 947.6
343.15 K, x1 = 0.6529 | 931.6
343.15 K, x1 = 0.7039 | 920.3
343.15 K, x1 = 0.7735 | 905.2
343.15 K, x1 = 0.8423 | 890.7
343.15 K, x1 = 0.8814 | 882.5
343.15 K, x1 = 0.9476 | 868.9
343.15 K, x1 = 1 | 858.2
353.15 K, x1 = 0.0621 | 1069.6
353.15 K, x1 = 0.1257 | 1051
353.15 K, x1 = 0.1644 | 1040
353.15 K, x1 = 0.2312 | 1021.6
353.15 K, x1 = 0.3042 | 1002.2
353.15 K, x1 = 0.3718 | 985
353.15 K, x1 = 0.4423 | 967.7
353.15 K, x1 = 0.5021 | 953.5
353.15 K, x1 = 0.5539 | 941.6
353.15 K, x1 = 0.6243 | 925.9
353.15 K, x1 = 0.6912 | 911.4
353.15 K, x1 = 0.752 | 898.5
353.15 K, x1 = 0.8132 | 885.9
353.15 K, x1 = 0.8642 | 875.5
353.15 K, x1 = 0.9248 | 863.4
353.15 K, x1 = 1 | 848.6
